In patent US5919761A, “Peptides for heparin and low molecular weight heparin anticoagulation reversal” (The Board of Regents of the University of Michigan, priority 1995, dated 1999):

Columns and labels:
[1] = system: standard, unfractionated heparin; test: Percent reversal of standard heparin anticoagulation by variant peptides and protamine, in vivo canine study, coagulation tests; parameters: species or system dogs; conditions: for Percent reversal of heparin anticoagulation, ACT: dogs, heparin 150 IU/kg IV, agent 1.5 mg/kg IV over 10 seconds
Description: Data are expressed as a mean ±1 SD. Statistical analysis using linear regression for determination of correlation coefficients, and analysis of variance (ANOVA) or unpaired two-way Student's t-test; p<0.05 was accepted as statistically significant.
Anticoagulation reversal was assessed by a number of standard coagulation tests performed upon samples of venous blood: activated clotting time (ACT), prothrombin time (PT), activated partial thromboplastin time (aPTT), thrombin clotting time (TCT), heparin concentration by assay for FXa inhibitory activity (FXa), white cell count (WBC), and platelet counts (PLT). Measurements were made 3 minutes prior to heparin reversal (baseline) and 3 minutes and 30 minutes post-administration of the heparin reversal agent. The "Heparin" row sets forth the observed reversal as a consequence of expected heparin metabolism or degradation alone.

[2] = Percent change in platelet count after standard heparin reversal, cell adhesion ligand analogs, canine study; type: in vivo; conditions: dogs, agent over 10 seconds
Description: In addition to hemodynamic changes, Table 15 lists the percent change in platelet count following administration of n-protamine and the selected variants, as well as the factor Xa and factor IIa reversal, as a percent change at 3 minutes post administration of the compound.

[3] = system: LMWH (Enoxaparin); test: Factor Xa and IIa reversal after LMWH Enoxaparin, canine study; type: in vivo; conditions: dogs, 3 min
Description: Similar studies were conducted to assess the ability of the protamine-like peptide analogs described in this section to reverse the anticoagulation effects of the LMWH, Enoxaparin. FIG. 5a through FIG. 5d are graphical representations of LMWH anticoagulation activities achieved by n-protamine (Protamine [+21]), and compounds [+18BE], [+18KDEL], and [+18RGD] plotted as a percent of reversal against time in minutes. […] Referring to FIG. 5c, compound [+18RGD] dramatically outperforms n-protamine in reversing the heparin antifactor Xa activity of Enoxaparin.

[4] = Hemodynamic studies and total toxicity score after standard heparin reversal, canine study; conditions: dogs
Description: As used hereinafter, the peptides will be identified by their total cationic charge value, e.g., [+8], [+16], etc.
Hemodynamic studies were conducted by measuring mean arterial pressure (MAP), heart rate (HR), and maximum percent changes in cardiac output (CO) and systemic oxygen consumption (VO2).
Total toxicity scores (TTS) were developed that reflected maximum declines in each of four parameters (MAP, CO, VO2 and HR) over the first 5 minutes after reversal, the latter being the time of expected greatest adverse hemodynamic effect. The maximum changes occurring in an individual dog over the first 5 minutes were divided by the standard deviation derived from the entire group of tested animals and the four scores were added, resulting in a TTS for each individual dog. The TTS values for each dog were then summed to obtain an average TTS and SD for each peptide studied.

**Q.** For “PR4 S3 RPVR5 PRVSR6 G2 R4 [Protamine [+21], reference compound]”, which “Percent reversal of heparin anticoagulation, ACT” value ([1]; 3 min post-administration) is on record?
**A.** 102%

**Q.** What about the “Percent reversal of heparin anticoagulation, ACT” value ([1]; 30 min) of the same substance?
**A.** 90%

**Q.** What about the “Percent reversal of heparin anticoagulation, APTT” value ([1]; same study, 3 min) of the same substance?
**A.** 100%

**Q.** And the “Percent reversal of heparin anticoagulation, FNa” value ([1]; same study, 3 min)?
**A.** 102%

**Q.** And the “Percent reversal of heparin anticoagulation, FXa” value ([1]; same study, 3 min)?
**A.** 101%

**Q.** What about the “Percent reversal of heparin anticoagulation, PT” value ([1]; same study, 3 min) of the same substance?
**A.** 84%

**Q.** What about the “Percent reversal of heparin anticoagulation, TCT” value ([1]; same study, 3 min) of the same substance?
**A.** 101%

**Q.** And the “Percent reversal of heparin anticoagulation, APTT” value ([1]; same study, 30 min)?
**A.** 127%

**Q.** What about the “Percent reversal of heparin anticoagulation, FXa” value ([1]; same study, 30 min) of the same substance?
**A.** 96%

**Q.** What about the “Percent reversal of heparin anticoagulation, PT” value ([1]; same study, 30 min) of the same substance?
**A.** 88%

**Q.** And the “Percent reversal of heparin anticoagulation, TCT” value ([1]; same study, 30 min)?
**A.** 100%

**Q.** And the “Platelet (percent change in platelet count)” value [2]?
**A.** -54%

**Q.** And the “IIa Reversal” value [3]?
**A.** 98%

**Q.** And the “Xa Reversal” value [3]?
**A.** 30%

**Q.** And the ΔHR [4]?
**A.** -29

**Q.** What about the ΔMAP ([4]; average maximum decline in first five minutes after peptide administration) of the same substance?
**A.** -34

**Q.** What about the “average total toxicity score (TTS±SD)” value ([4]; first 5 minutes after reversal, more negative = more toxic) of the same substance?
**A.** -7.0±5.2

**Q.** What about the ΔCO ([4]; maximum percent change) of the same substance?
**A.** -38%

**Q.** And the ΔVO2 ([4]; maximum percent change)?
**A.** -35%
